Literature values as cited in PubChem BioAssay AID1259409 (Chemical Carcinogenesis Research Information System (CCRIS), 2018).

Tested on: rodent chemically induced tumor inhibition, incidence and multiplicity
Assay: CCRIS tumor inhibitor studies

For `COc1ccc2c(c1)c(CC(=O)O)c(C)n2C(=O)c1ccc(Cl)cc1`, which “tumour outcome (control, treated, inhibition, significance)” value (Carcinogen: 1,2-DIMETHYLHYDRAZINE DIHYDROCHLORIDE, 306-37-6, Dose [Inhibitor]: 20 MG/L TAP WATER DAILY FOR 32 WK STARTING SIMULTANEOUSLY WITH CARCINOGEN TREATMENT (STUDY DURATION: 32 WK), Route [Inhibitor]: ORAL, Species: RAT, Strain/Sex: SPRAGUE-DAWLEY/MALE, Target Tissue: Type of Lesion: LARGE INTESTINE: TUMOR, Dose [Carcinogen]: 20 MG/KG BW 1/WK FOR 20 WK, Promoter: NONE USED) is on record?
The value was 88%, 56%, 36%, p<0.005.

And the “tumour outcome (control, treated, inhibition, significance)” value (Carcinogen: 1,2-DIMETHYLHYDRAZINE DIHYDROCHLORIDE, 306-37-6, Dose [Inhibitor]: 20 MG/L TAP WATER DAILY FOR 32 WK STARTING SIMULTANEOUSLY WITH CARCINOGEN TREATMENT (STUDY DURATION: 32 WK), Route [Inhibitor]: ORAL, Species: RAT, Strain/Sex: SPRAGUE-DAWLEY/MALE, Target Tissue: Type of Lesion: SMALL INTESTINE: TUMOR, Dose [Carcinogen]: 20 MG/KG BW 1/WK FOR 20 WK, Promoter: NONE USED)?
Its value is 46%, 31%, 33%, not significant.

And the “tumour outcome (control, treated, inhibition, significance)” value (Carcinogen: 1,2-DIMETHYLHYDRAZINE, 540-73-8, Dose [Inhibitor]: 20 MG/L IN DRINKING WATER DAILY FOR 15 WK STARTING 34 D AFTER CARCINOGEN ADMINISTRATION (STUDY DURATION: 20 WK), Route [Inhibitor]: ORAL, Species: RAT, Strain/Sex: SPRAGUE-DAWLEY/MALE, Target Tissue: Type of Lesion: INTESTINE: TUMOR, Dose [Carcinogen]: 30 MG/KG BW ONCE, Promoter: NONE USED)?
The value was 9/10 (90%), 2/9 (22%), 76%, p 0.0019.

And the “tumour outcome (control, treated, inhibition, significance)” value (Carcinogen: 1-HYDROXYANTHRAQUINONE, 129-43-1, Dose [Inhibitor]: 0, 16 PMM IN DRINKING WATER FOR 48 WK (STUDY DURATION: 48 WK), Route [Inhibitor]: ORAL, Species: RAT, Strain/Sex: ACI/MALE, Target Tissue: Type of Lesion: LARGE BOWEL: ADENOCARCINOMA, Dose [Carcinogen]: 1.5% IN DIET FOR 48 WK, Promoter: NONE USED)?
Its value is 7/27 (26%), 0/14 (0%), 100%), p= 0.03.

What about the “tumour outcome (control, treated, inhibition, significance)” value (Carcinogen: 1-HYDROXYANTHRAQUINONE, 129-43-1, Dose [Inhibitor]: 0, 16 PPM IN DRINKING WATER FOR 48 WK (STUDY DURATION: 48 WK), Route [Inhibitor]: ORAL, Species: RAT, Strain/Sex: ACI/MALE, Target Tissue: Type of Lesion: CECUM: ADENOCARCINOMA, Dose [Carcinogen]: 1.5% IN DIET FOR 48 WK, Promoter: NONE USED) of the same compound?
The value was 3/27 (11%), 0/14 (0%), 100%, not calculated.

What about the “tumour outcome (control, treated, inhibition, significance)” value (Carcinogen: 1-HYDROXYANTHRAQUINONE, 129-43-1, Dose [Inhibitor]: 0, 16 PPM IN DRINKING WATER FOR 48 WK (STUDY DURATION: 48 WK), Route [Inhibitor]: ORAL, Species: RAT, Strain/Sex: ACI/MALE, Target Tissue: Type of Lesion: CECUM: ADENOMA, Dose [Carcinogen]: 1.5% IN DIET FOR 48 WK, Promoter: NONE USED) of the same compound?
Its value is 2/27 (7%), 0/14 (0%), 100%, not calculated.

And the “tumour outcome (control, treated, inhibition, significance)” value (Carcinogen: 1-HYDROXYANTHRAQUINONE, 129-43-1, Dose [Inhibitor]: 0, 16 PPM IN DRINKING WATER FOR 48 WK (STUDY DURATION: 48 WK), Route [Inhibitor]: ORAL, Species: RAT, Strain/Sex: ACI/MALE, Target Tissue: Type of Lesion: COLON: ADENOCARCINOMA, Dose [Carcinogen]: 1.5% IN DIET FOR 48 WK, Promoter: NONE USED)?
The value was 5/27 (19%), 0/14 (0%), 100%, not calculated.

And the “tumour outcome (control, treated, inhibition, significance)” value (Carcinogen: 1-HYDROXYANTHRAQUINONE, 129-43-1, Dose [Inhibitor]: 0, 16 PPM IN DRINKING WATER FOR 48 WK (STUDY DURATION: 48 WK), Route [Inhibitor]: ORAL, Species: RAT, Strain/Sex: ACI/MALE, Target Tissue: Type of Lesion: COLON: ADENOMA OR ADENOCARCINOMA, Dose [Carcinogen]: 1.5% IN DIET FOR 48 WK, Promoter: NONE USED)?
The value was 9/27 (33%), 0/14 (0%), 100%, p<0.01.

And the “tumour outcome (control, treated, inhibition, significance)” value (Carcinogen: 1-HYDROXYANTHRAQUINONE, 129-43-1, Dose [Inhibitor]: 0, 16 PPM IN DRINKING WATER FOR 48 WK (STUDY DURATION: 48 WK), Route [Inhibitor]: ORAL, Species: RAT, Strain/Sex: ACI/MALE, Target Tissue: Type of Lesion: COLON: ADENOMA, Dose [Carcinogen]: 1.5% IN DIET FOR 48 WK, Promoter: NONE USED)?
Its value is 4/27 (15%), 0/14 (0%), 100%, not calculated.

What about the outcome (Carcinogen: 1-HYDROXYANTHRAQUINONE, 129-43-1, Dose [Inhibitor]: 0, 16 PPM IN DRINKING WATER FOR 48 WK (STUDY DURATION: 48 WK), Route [Inhibitor]: ORAL, Species: RAT, Strain/Sex: ACI/MALE, Target Tissue: Type of Lesion: FORESTOMACH: PAPILLOMA, Dose [Carcinogen]: 1.5% IN DIET FOR 48 WK, Promoter: NONE USED) of the same compound?
Its outcome is 14/27 (52%), 2/14 (14%), p= 0.01.

What about the “tumour outcome (control, treated, inhibition, significance)” value (Carcinogen: 1-HYDROXYANTHRAQUINONE, 129-43-1, Dose [Inhibitor]: 0, 16 PPM IN DRINKING WATER FOR 48 WK (STUDY DURATION: 48 WK), Route [Inhibitor]: ORAL, Species: RAT, Strain/Sex: ACI/MALE, Target Tissue: Type of Lesion: FORESTOMACH: TUMOR, Dose [Carcinogen]: 1.5% IN DIET FOR 48 WK, Promoter: NONE USED) of the same compound?
Its value is 14/27 (52%), 2/14 (14%), 73%, p<0.01.

And the “tumour outcome (control, treated, inhibition, significance)” value (Carcinogen: 1-HYDROXYANTHRAQUINONE, 129-43-1, Dose [Inhibitor]: 0, 16 PPM IN DRINKING WATER FOR 48 WK (STUDY DURATION: 48 WK), Route [Inhibitor]: ORAL, Species: RAT, Strain/Sex: ACI/MALE, Target Tissue: Type of Lesion: LARGE BOWEL: ADENOMA, Dose [Carcinogen]: 1.5% IN DIET FOR 48 WK, Promoter: NONE USED)?
The value was 5/27 (19%), 0/14 (0%), 100%, not calculated.

What about the “tumour outcome (control, treated, inhibition, significance)” value (Carcinogen: 1-HYDROXYANTHRAQUINONE, 129-43-1, Dose [Inhibitor]: 0, 16 PPM IN DRINKING WATER FOR 48 WK (STUDY DURATION: 48 WK), Route [Inhibitor]: ORAL, Species: RAT, Strain/Sex: ACI/MALE, Target Tissue: Type of Lesion: LARGE BOWEL: TUMOR, Dose [Carcinogen]: 1.5% IN DIET FOR 48 WK, Promoter: NONE USED) of the same compound?
The value was 12/27 (44%), 0/14 (0%), 100%, not calculated.

What about the “tumour outcome (control, treated, inhibition, significance)” value (Carcinogen: 1-HYDROXYANTHRAQUINONE, 129-43-1, Dose [Inhibitor]: 0, 16 PPM IN DRINKING WATER FOR 48 WK (STUDY DURATION: 48 WK), Route [Inhibitor]: ORAL, Species: RAT, Strain/Sex: ACI/MALE, Target Tissue: Type of Lesion: LIVER: NEOPLASTIC NODULE, Dose [Carcinogen]: 1.5% IN DIET FOR 48 WK, Promoter: NONE USED) of the same compound?
Its value is 1/27 (4%), 0/14 (0%), 100%, not calculated.

And the “tumour outcome (control, treated, inhibition, significance)” value (Carcinogen: 1-HYDROXYANTHRAQUINONE, 129-43-1, Dose [Inhibitor]: 0, 16 PPM IN DRINKING WATER FOR 48 WK (STUDY DURATION: 48 WK), Route [Inhibitor]: ORAL, Species: RAT, Strain/Sex: ACI/MALE, Target Tissue: Type of Lesion: LIVER: TUMOR, Dose [Carcinogen]: 1.5% IN DIET FOR 48 WK, Promoter: NONE USED)?
The value was 1/27 (4%), 0/14 (0%), 100%, not calculated.

What about the “tumour outcome (control, treated, inhibition, significance)” value (Carcinogen: 2-ACETYLAMINOFLUORENE, 53-96-3, Dose [Inhibitor]: 0, 10 PPM IN DRINKING WATER FOR 18 WK BEGINNING 1 WK PRIOR TO CARCINOGEN TREATMENT (STUDY DURATION: 36 WK), Route [Inhibitor]: ORAL, Species: RAT, Strain/Sex: ACI/N/MALE, Target Tissue: Type of Lesion: LIVER: TUMOR, Dose [Carcinogen]: 200 PPM IN DIET FOR 16 WK, Promoter: NONE USED) of the same compound?
Its value is 10/10 (100%), 1/10 (10%), 90%, p=0.00006.

What about the outcome (Carcinogen: 4-HYDROXYBUTYL(BUTYL)NITROSAMINE [3817-11-6], Dose [Inhibitor]: 20 MG/KG IN DIET 1 WK AFTER CARCINOGEN (STUDY DURATION: 32 WK), Route [Inhibitor]: DIET, Species: MOUSE, Strain/Sex: B6D2F1/MALE, Target Tissue: Type of Lesion: BLADDER: CARCINOMA, Dose [Carcinogen]: 7.5 MG/WK FOR 12 WK) of the same compound?
The outcome was 32, 6, 81%.

What about the outcome (Carcinogen: 4-HYDROXYBUTYL(BUTYL)NITROSAMINE [3817-11-6], Dose [Inhibitor]: 20 MG/KG IN DIET 1 WK AFTER LAST CARCINOGEN DOSE (STUDY DURATION: 61 WK), Route [Inhibitor]: DIET, Species: MOUSE, Strain/Sex: B6D2F1/MALE, Target Tissue: Type of Lesion: BLADDER: CARCINOMA, Dose [Carcinogen]: 7.5 MG/WK FOR 12 WK) of the same compound?
The outcome was 66, 26, 61%.

And the outcome (Carcinogen: 4-HYDROXYBUTYL(BUTYL)NITROSAMINE [3817-11-6], Dose [Inhibitor]: 20 MG/KG IN DIET 1 WK AFTER LAST CARCINOGEN DOSE FOR 12 WK (STUDY DURATION: 42 WK), Route [Inhibitor]: DIET, Species: MOUSE, Strain/Sex: B6D2F1/MALE, Target Tissue: Type of Lesion: BLADDER: CARCINOMA, Dose [Carcinogen]: 7.5 MG/WK FOR 12 WK)?
Its outcome is 31, 16, 48%.
